Source: patent US20230312670A1, “MYELIN OLIGODENDROCYTE GLYCOPROTEIN-SPECIFIC PEPTIDE FOR THE TREATMENT OR PREVENTION OF MULTIPLE SCLEROSIS” (LOMA LINDA UNIVERSITY, priority 2016, published 2023)
Entries after “also recorded” stand apart in the source; their conditions may differ. Marks after values point to notes of the source that are not given here.

Tests used:
[1] = system: MOG196-specific Qa-1^b-restricted CD8^+ T cells; test: In vitro stimulation of CD8+ T cells with MOG196-pulsed antigen-presenting cells, Qa-1^b/MOG196 tetramer staining; assay type: cell-based; details: weekly stimulation with MOG196-pulsed APCs from K^b−/−d^b−/− or C57Bl/6 mice; beginning on day 14
Procedure: FIG. 4A-4D. MOG196 can bind to Qa-1^b and stimulate MOG196-specific Qa-1^b-restricted CD8^+ T cells. (A) MOG196 was incubated with recombinant Qa-1^b and β2 microglobulin in a protein refolding buffer at 10° C. under gentle agitation (60 rpm) for four days. The solution was separated by a size exclusion column. Peak “A” and “B” represented typical non-specific protein aggregates and correctly refolded MOG196/Qa-1^b monomer, respectively. (B) Monomers in peak B of panel “A” were further analyzed by an anion exchange chromatography. (C) Proteins in peaks “A”, “B1”, and “B2” were biotinylated and portions of the biotinylated proteins were incubated with streptavidin (SA) to examine formation of tetramers. The biotinylated proteins and corresponding tetramers were analyzed in a non-denature protein gel. Arrows show protein bands for MOG196/Qa-1^b monomers. […] The CD8^+ T cells were analyzed for binding to Qa-1^b/MOG196 tetramer at days 0, 7, and 14. […]
Multichromatic flow cytometry: Briefly, about 0.5-1×10^6 cells in a FACS buffer (PBS containing 1% FBS and 0.05% sodium azide) were stained with various fluorescence-conjugated antibodies specific for the desired cell surface proteins or with tetramers at 4′C for 30 min. The stained cells were washed twice in the FACS buffer before being analyzed on a BD FACSAria II. […]

CD8^+ T cells = test: IFN-γ Enzyme-linked ImmunoSpot of CD8+ T cells with C1R or C1R.Qa-1^b antigen-presenting cells; assay type: cell-based, K^b−/−D^b−/− mice; details: in the presence of C1R.Qa-1^b cells
Procedure: FIG. 1A-1C. Portion of CD8^+ T cells reactive to the pool of overlapping peptides (OLPs) covering the whole length of mouse MOG was Qa-1^b restricted. (A) A schematic view of the mouse MOG OLP library. 15mer peptides across the whole length of mouse MOG (247 amino acids) and overlapped by 11 amino acids were synthesized. A pool of the 59 OLPs (“MOG_pool”) at a concentration of 4.2 μg/ml for each peptide was then generated for stimulating CD8^+ T cells purified from K^b−/−D^b−/− mice. (B) Experimental design for Enzyme-linked ImmunoSpot assay in “C”: CD8^+ T cells purified from K^b−/−D^b−/− mice were stimulated with the MOG_pool in vitro on a weekly basis. Before being stimulated each time, the CD8^+ T cells were monitored for response to the MOG_pool, using IFN-γ Enzyme-linked ImmunoSpot, in the presence of either C1R or C1R.Qa-1^b cells as antigen presenting cells. (C) Enzyme-linked ImmunoSpot data on day 7 were shown and were representative of three independent experiments. The number at the upper left corner of each well is the absolute number of IFN-γ spot forming cells (SFCs) in the corresponding well (50,000 CD8 T cells/well).
FIG. 2A-2F. Recognition of multiple OLPs by the MOG_pool-reactive CD8^+ T cell lines depended on Qa-1^b. (A-D) MOG_pool-reactive CD8^+ T cell lines were generated as described in FIG. 1. […]

[2] = system: Qa-1^b/MOG196 tetramer^+CD8^+ T cells; test: CD122 and Ly49 expression on Qa-1^b/MOG196 tetramer+ CD8+ T cells after immunization with MOG196-pulsed DC2.4 cells; assay type: in vivo, C57BL/6 mice; details: intravenous MOG196-pulsed DC2.4 cells at days 0 and 10, analysis ten days after last immunization
Excerpt: FIG. 7A-7G. Immunization with DCs pulsed with MOG196 activates Qa-1^b/MOG196 tetramer^+ cells that specifically accumulate in cervical lymph nodes. (A) C57BL/6 mice (5 mice/group) were immunized with MOG35-55 for EAE. […] (B) Representative plots of Qa-1^b/MOG196tetramer^+ cells among CD8^+ T cells in cervical lymph nodes and spleens. (C) Cumulative data of Qa-1^b/MOG196tetramer^+ cells from five mice. *P<0.05. Two-way ANOVA test. (D) Representative plots of I-A^b/MOG38-49 tetramer^+ cells among CD8^− T cells in cervical lymph nodes and spleens. (E) Cumulative data of I-A^b/MOG38-49 tetramer^+ cells from five mice. *P<0.05. Two-way ANOVA test. (F) Experimental design for “G”: C57BL/6 mice were intravenously immunized with MOG196-pulsed DC2.4 cells at days 0 and 10. […]
Multichromatic flow cytometry: Briefly, about 0.5-1×10^6 cells in a FACS buffer (PBS containing 1% FBS and 0.05% sodium azide) were stained with various fluorescence-conjugated antibodies specific for the desired cell surface proteins or with tetramers at 4′C for 30 min. The stained cells were washed twice in the FACS buffer before being analyzed on a BD FACSAria II.
CD122 and Ly49 were expressed in a portion of the Qa-1^b/MOG196 tetramer+ cells. […] Expression of these two markers on the Qa-I^b/MOG196 tetramer+ cells was analyzed.

Qa-1^b = Qa-1^b (Mus musculus, UniProt P06339); test: In vitro refolding of peptide with recombinant Qa-1^b protein and β2 microglobulin; assay type: binding; details: 10° C., four days; size exclusion, anion exchange, tetramer formation
Procedure: FIG. 4A-4D. MOG196 can bind to Qa-1^b and stimulate MOG196-specific Qa-1^b-restricted CD8^+ T cells. (A) MOG196 was incubated with recombinant Qa-1^b and β2 microglobulin in a protein refolding buffer at 10° C. under gentle agitation (60 rpm) for four days. The solution was separated by a size exclusion column. Peak “A” and “B” represented typical non-specific protein aggregates and correctly refolded MOG196/Qa-1^b monomer, respectively. (B) Monomers in peak B of panel “A” were further analyzed by an anion exchange chromatography. (C) Proteins in peaks “A”, “B1”, and “B2” were biotinylated and portions of the biotinylated proteins were incubated with streptavidin (SA) to examine formation of tetramers. The biotinylated proteins and corresponding tetramers were analyzed in a non-denature protein gel. Arrows show protein bands for MOG196/Qa-1^b monomers. “−”: without SA; “+”: with SA; “pk A”: peak A; “pk B1”: peak B1; “pk B2“ ” peak B2; “Std”: a protein standard. […] The CD8^+ T cells were analyzed for binding to Qa-1^b/MOG196 tetramer at days 0, 7, and 14. […]
MOG196 binds to Qa-1^b and activates MOG196—specific Qa-1^b—restricted CD8^+ T cells in vitro. […] Subsequently, the biotinylated proteins and streptavidin-conjugated tetramers were analyzed in a non-denature protein gel. […]

binding to Qa-1^b (refolding into MOG196/Qa-1^b/β2m monomer) (Qa-1^b): could bind to Qa-1^b
Sequence: IICYNWLHR [MOG196]
Qa-1^b/MOG196 tetramer+ cells in CD8^+ T cell lines [1]: could be detected
stimulation of an OLP105-reactive CD8^+ T cell line by truncated OLP105 peptides (IFN-γ SFCs) (CD8^+ T cells): minimal and optimal epitope in OLP105; also recorded: highest response
tetramer+ cells expressing CD122 [2]: about 22.6%
tetramer+ cells expressing both CD122 and Ly49 [2]: about 7.2%
